Measured values reported in ChEMBL document CHEMBL3714755, “Pyridinyl amides as P2X3 and P2X2/3 inhibitors” (2014).
Active and inactive are the calls of the source. How the calls were made is not given here.

Target: P2X2/P2X3 heterotrimeric receptor (Homo sapiens) (UniProt Q9UBL9+P56373)
Assay: Antagonist activity against human P2X2/3 receptor expressed in CHOK1 cells assessed as inhibition of alpha,beta-meATP-induced calcium response incubated for 20 mins by Fluo-3AM dye based FLIPR assay
Format: functional, cell-based
Conditions: CHO-K1

Compound | inhibition
COCC(C)NC(=O)c1cc(NC(=O)c2ccccc2)cc(-c2ccc(C)cc2)c1 (configuration not stated) | Active
COCC(C)NC(=O)c1cc(NC(=O)c2cscn2)cc(-c2ccc(C)cc2)c1 (configuration not stated) | Active
CC(C)C(=O)N(C)c1cc(C(=O)NC(C)c2cnccn2)cc(-c2ccc(Cl)cc2Cl)c1 (configuration not stated) | Active
COCC(C)NC(=O)c1cc(NC(=O)c2ccc(C)s2)cc(-c2ccc(C)cc2)c1 (configuration not stated) | Active
Cc1ccc(-c2cc(C(=O)NC(C)c3cnccn3)cc(N(C)C(=O)C(C)C)c2)nc1 (configuration not stated) | Active
Cc1ccc(-c2cc(C(=O)NC(C)c3cnccn3)cc(N(C)C(=O)C(C)C)c2)c(Cl)c1 (configuration not stated) | Active
CC(C)C(=O)N(C)c1cc(C(=O)NCc2cnccn2)cc(-c2ccc(Cl)cn2)c1 | Active
Cc1ccc(-c2cc(C(=O)N[C@@H](C)CO)cc(N(C)C(=O)C(C)C)c2)c(Cl)c1 | Active
COCC(C)NC(=O)c1cc(NC(=O)c2ccccn2)cc(-c2ccc(C)cc2)c1 (configuration not stated) | Active
COCC(C)NC(=O)c1cc(NC(=O)c2ccc(F)cc2Cl)cc(-c2ccc(C)cc2)c1 (configuration not stated) | Active
Cc1ccc(-c2cc(C(=O)NCc3cnc(C)cn3)cc(N(C)C(=O)C3(C)COC3)c2)nc1 | Active
COCC(C)NC(=O)c1cc(NC(=O)c2ccc(C(F)(F)F)cc2Cl)cc(-c2ccc(C)cc2)c1 (configuration not stated) | Active
COCC(C)NC(=O)c1cc(NC(=O)c2cc(C)cs2)cc(-c2ccc(C)cc2)c1 (configuration not stated) | Active
CCN(C(=O)c1ccncc1)c1cc(C(=O)NC(C)COC)cc(-c2ccc(C)cc2)c1 (configuration not stated) | Active
CC(C)C(=O)N(C)c1cc(C(=O)NC(C)c2cnccn2)cc(-c2ccc(Cl)cn2)c1 (configuration not stated) | Active
COC[C@@H](C)NC(=O)c1cc(-c2ccc(F)cc2F)cc(N(C)C(=O)C(C)C)c1 | Active
CC(C)C(=O)N(C)c1cc(C(=O)N[C@@H](C)CO)cc(-c2ccc(Cl)cn2)c1 | Active
COCC(C)NC(=O)c1cc(NC(=O)c2cc(C)nn2C)cc(-c2ccc(C)cc2)c1 (configuration not stated) | Active
CC(C)C(=O)N(C)c1cc(C(=O)NC(C)c2cnccn2)cc(-c2ccc(F)cc2F)c1 (configuration not stated) | Active
Cc1ccc(-c2cc(C(=O)N[C@@H](C)CO)cc(N(C)C(=O)C(C)C)c2)c(F)c1 | Active
Cc1ccc(-c2cc(C(=O)NCc3cnccn3)cc(N(C)C(=O)C(C)C)c2)c(F)c1 | Active
Cc1ccc(-c2cc(C(=O)NC(C)c3cnccn3)cc(N(C)C(=O)C(C)C)c2)c(F)c1 (configuration not stated) | Active

Compound | inhibition
COC[C@@H](C)NC(=O)c1cc(-c2ccc(Cl)cc2Cl)cc(N(C)C(=O)C(C)C)c1 | Active
COCC(C)NC(=O)c1cc(NC(=O)c2ccc(C)cc2C)cc(-c2ccc(C)cc2)c1 (configuration not stated) | Active
COCC(C)NC(=O)c1cc(NC(=O)c2ccco2)cc(-c2ccc(C)cc2)c1 (configuration not stated) | Active
COCC(C)NC(=O)c1cc(NC(=O)C2CCCCC2)cc(-c2ccc(C)cc2)c1 (configuration not stated) | Active
COCC(C)NC(=O)c1cc(NC(=O)c2cc(C)on2)cc(-c2ccc(C)cc2)c1 (configuration not stated) | Active
CCC(=O)N(C)c1cc(C(=O)N[C@H](C)CN2CCOCC2)cc(-c2ccc(C)cc2)c1 | Active
CCC(=O)N(C)c1cc(C(=O)NC(C)COC)cc(-c2ccc(C)cc2)c1 (configuration not stated) | Active
Cc1ccc(-c2cc(C(=O)NCc3cnc(C)cn3)cc(N(C)C(=O)C(C)C)c2)nc1 | Active
Cc1ccc(-c2cc(C(=O)NCc3cnccn3)cc(N(C)C(=O)C(C)C)c2)cc1 | Active
Cc1ccc(-c2cc(C(=O)N[C@@H](C)CO)cc(N(C)C(=O)C(C)C)c2)nc1 | Active
CCN(C(=O)CC(C)C)c1cc(C(=O)NC(C)CO)cc(-c2ccc(C)cc2)c1 (configuration not stated) | Active
CCN(C(=O)C(C)C)c1cc(C(=O)N[C@@H](C)CO)cc(-c2ccc(C)cc2)c1 | Active
COCC(C)NC(=O)c1cc(NC(=O)c2cscc2OC)cc(-c2ccc(C)cc2)c1 (configuration not stated) | Active
Cc1ccc(-c2cc(C(=O)N[C@@H](C)CO)cc(N(C)C(=O)C3CCCC3)c2)cc1 | Active
COCC(C)NC(=O)c1cc(NC(=O)c2cccs2)cc(-c2ccc(C)cc2)c1 (configuration not stated) | Active
Cc1ccc(-c2cc(C(=O)N[C@@H](C)CO)cc(N(C)C(=O)C(C)C)c2)cc1 | Active
Cc1ccc(-c2cc(C(=O)NCc3cnccn3)cc(N(C)C(=O)C(C)C)c2)c(Cl)c1 | Active
CCC(C)C(=O)N(C)c1cc(C(=O)N[C@@H](C)CO)cc(-c2ccc(C)cc2)c1 (some centres not stated) | Active
COCC(C)NC(=O)c1cc(NC(=O)c2sccc2C)cc(-c2ccc(C)cc2)c1 (configuration not stated) | Active
COCC(C)NC(=O)c1cc(NC(=O)c2nc(C)oc2C)cc(-c2ccc(C)cc2)c1 (configuration not stated) | Active
CC(NC(=O)c1cc(-c2ccc(Cl)cc2)cc(N(C)C(=O)N2CCOCC2)c1)c1cnccn1 (configuration not stated) | Active
COCC(C)NC(=O)c1cc(NC(=O)c2c(-c3ccccc3)noc2C)cc(-c2ccc(C)cc2)c1 (configuration not stated) | Active

Other lines, results leading:

inhibition | Compound
Active | Cc1ccc(-c2cc(C(=O)NC(C)c3cnccn3)cc(N(C)C(=O)C3CCCCC3)c2)cc1 (configuration not stated)
Active | Cc1ccc(-c2cc(C(=O)NC(C)c3cnccn3)cc(N(C(=O)C(C)C)c3ccncn3)c2)cc1 (configuration not stated)
Active | Cc1ccc(-c2cc(C(=O)NC(C)c3cnccn3)cc(N(C)C(=O)C(C)C)c2)cc1 (configuration not stated)
Active | CC(=O)N(C)c1cc(C(=O)NC(C)c2cnccn2)cc(-c2ccc(C)cc2)c1 (configuration not stated)
Active | CCN(C(=O)c1cccnc1)c1cc(C(=O)NC(C)c2cnccn2)cc(-c2ccc(C)cc2)c1 (configuration not stated)
Active | CC(=O)N(c1cc(C(=O)NC(C)c2cnccn2)cc(-c2ccc(C)cc2)c1)c1ccncn1 (configuration not stated)
Active | CCNC(=O)N(C)c1cc(C(=O)NC(C)c2cnccn2)cc(-c2ccc(Cl)cc2)c1 (configuration not stated)
Active | Cc1ccc(-c2cc(C(=O)NC(C)c3cnccn3)cc(N(C)C(=O)c3snnc3C)c2)cc1 (configuration not stated)
Active | CCN(C(=O)OCC(C)C)c1cc(C(=O)NC(C)c2cnccn2)cc(-c2ccc(C)cc2)c1 (configuration not stated)
Active | CCC(C)(C)C(=O)N(C)c1cc(C(=O)NC(C)c2cnccn2)cc(-c2ccc(C)cc2)c1 (configuration not stated)
Active | CCN(c1cc(C(=O)NC(C)c2cnccn2)cc(-c2ccc(C)cc2)c1)c1cnccn1 (configuration not stated)
Active | Cc1ccc(-c2cc(C(=O)NC(C)c3cnccn3)cc(N(C)C(=O)C3CCCC3)c2)cc1 (configuration not stated)
Active | CC(NC(=O)c1cc(-c2ccc(Cl)cc2)cc(N(C)C(=O)N(C)C)c1)c1cnccn1 (configuration not stated)
Active | CCN(C(=O)COC)c1cc(C(=O)NC(C)c2cnccn2)cc(-c2ccc(C)cc2)c1 (configuration not stated)
Active | CCN(C(=O)C(C)C)c1cc(C(=O)NC(C)c2cnccn2)cc(-c2ccc(C)cc2)c1 (configuration not stated)
Active | CCC(C)C(=O)N(C)c1cc(C(=O)NC(C)c2cnccn2)cc(-c2ccc(C)cc2)c1 (configuration not stated)
Active | CCN(C(C)=O)c1cc(C(=O)NC(C)c2cnccn2)cc(-c2ccc(C)cc2)c1 (configuration not stated)
Active | CCC(=O)N(c1cc(C(=O)NC(C)c2cnccn2)cc(-c2ccc(C)cc2)c1)c1ccncn1 (configuration not stated)
Active | Cc1ccc(-c2cc(C(=O)NC(C)c3cnccn3)cc(N(C)C(=O)C3CCOCC3)c2)cc1 (configuration not stated)
Active | CCN(C(=O)CC(C)C)c1cc(C(=O)NC(C)c2cnccn2)cc(-c2ccc(C)cc2)c1 (configuration not stated)
Active | COCC(=O)N(C)c1cc(C(=O)NC(C)c2cnccn2)cc(-c2ccc(C)cc2)c1 (configuration not stated)
Active | Cc1ccc(-c2cc(C(=O)NC(C)c3cnccn3)cc(N(C)C(=O)C(C)(C)C)c2)cc1 (configuration not stated)
Active | Cc1ccc(-c2cc(NC(=O)C(C)C)cc(C(=O)NC(C)c3cnccn3)c2)cc1 (configuration not stated)
Active | CCN(C(=O)OC(C)C)c1cc(C(=O)NC(C)c2cnccn2)cc(-c2ccc(C)cc2)c1 (configuration not stated)
Active | CC(=O)N1CCC(C(=O)N(C)c2cc(C(=O)NC(C)c3cnccn3)cc(-c3ccc(C)cc3)c2)CC1 (configuration not stated)
Active | CCN(C(=O)C1CCOCC1)c1cc(C(=O)NC(C)c2cnccn2)cc(-c2ccc(C)cc2)c1 (configuration not stated)
Active | CCN(C(=O)OC)c1cc(C(=O)NC(C)c2cnccn2)cc(-c2ccc(C)cc2)c1 (configuration not stated)
Active | CCC(CC)C(=O)N(C)c1cc(C(=O)NC(C)c2cnccn2)cc(-c2ccc(C)cc2)c1 (configuration not stated)
